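48-hour exposure; five concentrations; linearly interpolated endpoints. At the GI50, growth is halved. TGI denotes the concentration required for complete inhibition of growth.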
Columns and labels:
Assay in all cases: NCI anticancer screen, dose series, 48 h
786-0 renal = system: 786-0 renal
A498 renal = system: A498 renal
A549 NSCLC = system: A549 NSCLC
ACHN renal = system: ACHN renal
BT-549 breast = system: BT-549 breast
CAKI-1 renal = system: CAKI-1 renal
CCRF-CEM leukemia = system: CCRF-CEM leukemia
COLO 205 colon = system: COLO 205 colon
DU-145 prostate = system: DU-145 prostate
EKVX NSCLC = system: EKVX NSCLC
HCC-2998 colon = system: HCC-2998 colon
HCT-116 colon = system: HCT-116 colon
HCT-15 colon = system: HCT-15 colon
HL-60(TB) leukemia = system: HL-60(TB) leukemia
HOP-62 NSCLC = system: HOP-62 NSCLC
HOP-92 NSCLC = system: HOP-92 NSCLC
HS 578T breast = system: HS 578T breast
HT29 colon = system: HT29 colon
IGROV1 ovarian = system: IGROV1 ovarian
K-562 leukemia = system: K-562 leukemia
KM12 colon = system: KM12 colon
LOX IMVI melanoma = system: LOX IMVI melanoma
M14 melanoma = system: M14 melanoma
MALME-3M melanoma = system: MALME-3M melanoma
MCF7 breast = system: MCF7 breast
MDA-MB-231 breast = system: MDA-MB-231 breast
MDA-MB-435 = system: MDA-MB-435
MDA-MB-468 breast = system: MDA-MB-468 breast
MOLT-4 leukemia = system: MOLT-4 leukemia
NCI-H226 lung = system: NCI-H226 lung
NCI-H23 lung = system: NCI-H23 lung
NCI-H460 lung = system: NCI-H460 lung
NCI-H522 lung = system: NCI-H522 lung
NCI/ADR-RES ovarian = system: NCI/ADR-RES ovarian
OVCAR-3 ovarian = system: OVCAR-3 ovarian
OVCAR-4 ovarian = system: OVCAR-4 ovarian
OVCAR-5 ovarian = system: OVCAR-5 ovarian
OVCAR-8 ovarian = system: OVCAR-8 ovarian
PC-3 prostate = system: PC-3 prostate
RPMI-8226 leukemia = system: RPMI-8226 leukemia
RXF 393 renal = system: RXF 393 renal
SF-268 CNS = system: SF-268 CNS
SF-295 CNS = system: SF-295 CNS
SF-539 CNS = system: SF-539 CNS
SK-MEL-2 melanoma = system: SK-MEL-2 melanoma
SK-MEL-28 melanoma = system: SK-MEL-28 melanoma
SK-MEL-5 melanoma = system: SK-MEL-5 melanoma
SK-OV-3 ovarian = system: SK-OV-3 ovarian
SN12C renal = system: SN12C renal
SNB-19 CNS = system: SNB-19 CNS
SNB-75 CNS = system: SNB-75 CNS
SW-620 colon = system: SW-620 colon
T-47D breast = system: T-47D breast
TK-10 renal = system: TK-10 renal
U251 CNS = system: U251 CNS
UACC-257 melanoma = system: UACC-257 melanoma
UACC-62 melanoma = system: UACC-62 melanoma
UO-31 renal = system: UO-31 renal

O=C(c1ccc(OCCN2CCOCC2)cc1)C1[C@H](c2ccc(Cl)cc2)[C@@H](c2ccccc2)NC12C(=O)Nc1ccc(Cl)cc12 (stereo partly specified)
GI50 (786-0 renal): 8.8 µM
TGI (786-0 renal): 19.6 µM
GI50 (A498 renal): 8.24 µM
TGI (A498 renal): 23.2 µM
GI50 (A549 NSCLC): 12.6 µM
TGI (A549 NSCLC): > 47.3 µM
GI50 (ACHN renal): 11.9 µM
TGI (ACHN renal): 40.9 µM
GI50 (BT-549 breast): 8.58 µM
TGI (BT-549 breast): 23.5 µM
GI50 (CAKI-1 renal): 8.1 µM
TGI (CAKI-1 renal): 39.5 µM
GI50 (CCRF-CEM leukemia): 10.6 µM
TGI (CCRF-CEM leukemia): 27.1 µM
GI50 (COLO 205 colon): 8.43 µM
TGI (COLO 205 colon): 16.8 µM
GI50 (DU-145 prostate): 10.9 µM
TGI (DU-145 prostate): 28.2 µM
GI50 (EKVX NSCLC): 8.46 µM
TGI (EKVX NSCLC): 27.2 µM
GI50 (HCC-2998 colon): 7.6 µM
TGI (HCC-2998 colon): 14.9 µM
GI50 (HCT-116 colon): 8.02 µM
TGI (HCT-116 colon): 15.9 µM
GI50 (HCT-15 colon): 7.53 µM
TGI (HCT-15 colon): 15.9 µM
GI50 (HL-60(TB) leukemia): 12 µM
TGI (HL-60(TB) leukemia): 34.9 µM
GI50 (HOP-62 NSCLC): 9.46 µM
TGI (HOP-62 NSCLC): 19.5 µM
GI50 (HOP-92 NSCLC): 6.85 µM
TGI (HOP-92 NSCLC): 18.7 µM
GI50 (HS 578T breast): 7.88 µM
TGI (HS 578T breast): 21.6 µM
GI50 (HT29 colon): 7.49 µM
TGI (HT29 colon): 16.7 µM
GI50 (IGROV1 ovarian): 9.58 µM
TGI (IGROV1 ovarian): 23.9 µM
GI50 (K-562 leukemia): 12.8 µM
TGI (K-562 leukemia): > 47.3 µM
GI50 (KM12 colon): 8.31 µM
TGI (KM12 colon): 18.2 µM
GI50 (LOX IMVI melanoma): 7.35 µM
TGI (LOX IMVI melanoma): 13.7 µM
GI50 (M14 melanoma): 8.04 µM
TGI (M14 melanoma): 15.8 µM
GI50 (MALME-3M melanoma): 7.11 µM
TGI (MALME-3M melanoma): 14.3 µM
GI50 (MCF7 breast): 8.4 µM
TGI (MCF7 breast): 27.8 µM
GI50 (MDA-MB-231 breast): 7.62 µM
TGI (MDA-MB-231 breast): 14.4 µM
GI50 (MDA-MB-435): 7.85 µM
TGI (MDA-MB-435): 15.8 µM
GI50 (MDA-MB-468 breast): 7.43 µM
TGI (MDA-MB-468 breast): 20.4 µM
GI50 (MOLT-4 leukemia): 7.53 µM
TGI (MOLT-4 leukemia): 27.9 µM
GI50 (NCI-H226 lung): 8.06 µM
TGI (NCI-H226 lung): 19.5 µM
GI50 (NCI-H23 lung): 8.72 µM
TGI (NCI-H23 lung): 18.2 µM
GI50 (NCI-H460 lung): 8.9 µM
TGI (NCI-H460 lung): 19.1 µM
GI50 (NCI-H522 lung): 9.75 µM
TGI (NCI-H522 lung): 21.3 µM
GI50 (NCI/ADR-RES ovarian): 11.1 µM
TGI (NCI/ADR-RES ovarian): 31.2 µM
GI50 (OVCAR-3 ovarian): 8.24 µM
TGI (OVCAR-3 ovarian): 20.1 µM
GI50 (OVCAR-4 ovarian): 11 µM
TGI (OVCAR-4 ovarian): 39.2 µM
GI50 (OVCAR-5 ovarian): 8.98 µM
TGI (OVCAR-5 ovarian): 25.4 µM
GI50 (OVCAR-8 ovarian): 13.6 µM
TGI (OVCAR-8 ovarian): > 47.3 µM
GI50 (PC-3 prostate): 7.93 µM
TGI (PC-3 prostate): 20.3 µM
GI50 (RPMI-8226 leukemia): 10.3 µM
TGI (RPMI-8226 leukemia): 29.9 µM
GI50 (RXF 393 renal): 6.14 µM
TGI (RXF 393 renal): 13.6 µM
GI50 (SF-268 CNS): 10.6 µM
TGI (SF-268 CNS): > 47.3 µM
GI50 (SF-295 CNS): 7.41 µM
TGI (SF-295 CNS): 14.4 µM
GI50 (SF-539 CNS): 8 µM
TGI (SF-539 CNS): 15 µM
GI50 (SK-MEL-2 melanoma): 7.85 µM
TGI (SK-MEL-2 melanoma): 15.7 µM
GI50 (SK-MEL-28 melanoma): 7.8 µM
TGI (SK-MEL-28 melanoma): 14.6 µM
GI50 (SK-MEL-5 melanoma): 5.4 µM
TGI (SK-MEL-5 melanoma): 11.8 µM
GI50 (SK-OV-3 ovarian): 15.4 µM
TGI (SK-OV-3 ovarian): > 47.3 µM
GI50 (SN12C renal): 6.75 µM
TGI (SN12C renal): 13 µM
GI50 (SNB-19 CNS): 10.6 µM
TGI (SNB-19 CNS): 34.9 µM
GI50 (SNB-75 CNS): 4.11 µM
TGI (SNB-75 CNS): > 47.3 µM
GI50 (SW-620 colon): 8.77 µM
TGI (SW-620 colon): 18.9 µM
GI50 (T-47D breast): 13.5 µM
TGI (T-47D breast): > 47.3 µM
GI50 (TK-10 renal): 9.96 µM
TGI (TK-10 renal): 33.7 µM
GI50 (U251 CNS): 7.15 µM
TGI (U251 CNS): 14.6 µM
GI50 (UACC-257 melanoma): 9.69 µM
TGI (UACC-257 melanoma): 34.2 µM
GI50 (UACC-62 melanoma): 6.42 µM
TGI (UACC-62 melanoma): 12.8 µM
GI50 (UO-31 renal): 7.25 µM
TGI (UO-31 renal): 23.7 µM

Source: PubChem BioAssay (NCI)
